In the first test the target is FXR (Homo sapiens (Human), UniProt Q96RI1). Nature of the test: transient human FXR/Gal4-luciferase reporter assay. Format: cell-based.
FXR, sequence (Q96RI1 262-486): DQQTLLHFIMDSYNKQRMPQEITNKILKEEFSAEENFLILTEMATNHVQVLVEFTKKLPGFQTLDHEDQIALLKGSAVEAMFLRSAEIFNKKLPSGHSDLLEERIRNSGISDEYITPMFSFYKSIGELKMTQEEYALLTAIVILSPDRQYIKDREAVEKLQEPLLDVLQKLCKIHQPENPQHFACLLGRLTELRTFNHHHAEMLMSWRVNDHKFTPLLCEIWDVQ
Conditions: not given
As to the method: A Gal4-hFXR fusion construct reporter system was used as the primary assay to characterize compound activity. A construct including 5 copies of the Gal4 promoter response element upstream of a firefly luciferase reporter cDNA was stably expressed in HEK293 cells. This reporter cell line was maintained in Dulbecco's Modified Eagle's medium (DMEM; Gibco) supplemented with 1% penicillin-streptomycin (P/S) solution, 500 μg/mL Zeocin and 10% charcoal/dextran-treated fetal bovine serum (cs-FBS) at 37° C. in a humidified 5% CO2 atmosphere. Another plasmid was constructed in which the human cytomegalovirus promoter in the pcDNA3.1 vector directs the expression of the cDNA encoding a fusion protein comprised of the DNA binding domain from the Gal4 transcription factor fused to the ligand binding domain from human FXR.
The day prior to transfection, the reporter cells in culture are detached from the plate with trypsin and plated into a T75 flask at a sufficient density to achieve approximately 90% confluence the next morning. The transfection reagents are prepared by separately diluting 25 μg of the pcDNA3.1-Gal4-FXR plasmid into 1.87 mL of Opti-MEM (Thermo-Fisher), and 40 μL of Lipofectamine 2000 (Thermo-Fisher) into 1.87 mL of Opti-MEM, and then adding the diluted DNA solution into the diluted Lipofectamine 2000 solution and incubating at room temperature for 15-20 minutes. The mixture is further diluted with 10 mL of a solution comprised of DMEM, 10% cs-FBS, and 1% P/S immediately prior to transferring to the cells. The maintenance culture media is aspirated from the cells and the final transfection mixture is added before the cells are incubated overnight at 37° C. in a humidified 5% CO2 atmosphere. This protocol can be scaled up, and the transiently transfected cells can be cryopreserved in an assay-ready format.
For compound testing, 100 nL of the compounds (serial dilutions in DMSO) are dispensed with an Echo acoustic dispenser (Labcyte) into the wells of a Corning/Costar clear bottom 384-well white plate. The transfected cells are harvested, counted, and diluted such that 10-25,000 cells in 25 μL are plated into each well of the 384-well compound assay plate. The compound-treated cells are incubated overnight at 37° C. in a humidified 5% CO2 atmosphere. The next morning 25 μL of Steady-Glo (Promega) are added to each well of the plate, the mixture is incubated for 15 min. with shaking, and luminescence is measured on an Envision (Perkin Elmer) plate reader.
(Reporter assays use an easily measured gene product as a stand-in for the process of interest.)
Consider `Cc1nc2ccc(-c3cccc(N(CC45CCC(c6nc(C7CC7)no6)(CC4)OC5)C(=O)C4CC(C(F)F)C4)c3)cc2s1` (centres unmarked) [Example 566, N-((1-(3-cyclopropyl-1,2,4-oxadiazol-5-yl)-2-oxabicyclo[2.2.2]octan-4-yl)methyl)-3-(difluoromethyl)-N-(3-(2-methylbenzo[d]thiazol-6-yl)phenyl)cyclobutane-1-carboxamide], for which a half-maximal effect (EC50) was put at 922 nM.

`CC(C)(C)c1nc(C23CCC(CN(C(=O)C4CC(O)(C(F)(F)F)C4)c4cccc(-c5ccc(OC(F)F)cc5)c4)(CC2)CC3)no1` [Example 516, (1S,3S)—N-((4-(5-(tert-butyl)-1,2,4-oxadiazol-3-yl)bicyclo[2.2.2]octan-1-yl)methyl)-N-(4′-(difluoromethoxy)-[1,1′-biphenyl]-3-yl)-3-hydroxy-3-(trifluoromethyl)cyclobutane-1-carboxamide]: the EC50 (as a rule, the midpoint of the concentration-response curve) came out at 94 nM.

`CC(C)(C)c1nc(C23CCC(CN(C(=O)C45CC(F)(C4)C5)c4cc(-c5ccc(NS(C)(=O)=O)cc5)ccn4)(CC2)CC3)no1` [Example 534, N-((4-(5-(tert-butyl)-1,2,4-oxadiazol-3-yl)bicyclo[2.2.2]octan-1-yl)methyl)-3-fluoro-N-(4-(4-(methylsulfonamido)phenyl)pyridin-2-yl)bicyclo[1.1.1]pentane-1-carboxamide] returned an EC50 of 77 nM.

`CCOc1cnc(-c2cccc(N(CC34CCC(c5ccc(C(F)(F)F)cn5)(CC3)CC4)C(=O)C34CC(F)(C3)C4)c2)nc1` [Example 498, N-(3-(5-ethoxypyrimidin-2-yl)phenyl)-3-fluoro-N-((4-(5-(trifluoromethyl)pyridin-2-yl)bicyclo[2.2.2]octan-1-yl)methyl)bicyclo[1.1.1]pentane-1-carboxamide]: the EC50 was determined as 524 nM.

Still in this test, the particulars now being: Gal4-hFXR fusion construct, HEK293 reporter cells; response relative to 8 μM GW-4064.
`O=C(N(CC12CCC(c3nc(C4CC4)no3)(CC1)CC2)c1cccc(-c2ccc(C(F)(F)F)nc2)c1)C12CC(F)(C1)C2` [Example 280, N-((4-(3-cyclopropyl-1,2,4-oxadiazol-5-yl)bicyclo[2.2.2]octan-1-yl)methyl)-3-fluoro-N-(3-(6-(trifluoromethyl)pyridin-3-yl)phenyl)bicyclo[1.1.1]pentane-1-carboxamide]: the EC50 came to 308 nM.

`COc1cc(-c2cccc(N(CC34CCC(c5nnc(C)s5)(CC3)CC4)C(=O)C3CC(O)(C(F)(F)F)C3)c2)ccn1` [Example 236, (1S,3S)-3-hydroxy-N-(3-(2-methoxypyridin-4-yl)phenyl)-N-((4-(5-methyl-1,3,4-thiadiazol-2-yl)bicyclo[2.2.2]octan-1-yl)methyl)-3-(trifluoromethyl)cyclobutane-1-carboxamide] gave an EC50 of 1540 nM.

For the compound `CC(C)(C)c1nc(C23CCC(CN(C(=O)C45CC(F)(C4)C5)c4cccc(-c5ccc6c(c5)OC(F)(F)O6)c4)(CC2)CC3)no1` [Example 457, N-((4-(5-(tert-butyl)-1,2,4-oxadiazol-3-yl)bicyclo[2.2.2]octan-1-yl)methyl)-N-(3-(2,2-difluorobenzo[d][1,3]dioxol-5-yl)phenyl)-3-fluorobicyclo[1.1.1]pentane-1-carboxamide], the EC50 turned out to be 144 nM.

As to `O=C(N(CC12CCC(c3nc(C4CC4)no3)(CC1)CC2)c1cccc(-c2cccn3ncnc23)c1)C12CC(F)(C1)C2` [Example 309, N-(3-([1,2,4]triazolo[1,5-a]pyridin-8-yl)phenyl)-N-((4-(3-cyclopropyl-1,2,4-oxadiazol-5-yl)bicyclo[2.2.2]octan-1-yl)methyl)-3-fluorobicyclo[1.1.1]pentane-1-carboxamide], the midpoint of the response, the EC50, lay at 221 nM.

Take `Cc1nc2ccc(-c3cccc(N(CC45CCC(c6cc(C(F)(F)F)ccn6)(CC4)CC5)C(=O)C45CC(F)(C4)C5)c3)cc2s1` [Example 356, 3-fluoro-N-(3-(2-methylbenzo[d]thiazol-6-yl)phenyl)-N-((4-(4-(trifluoromethyl)pyridin-2-yl)bicyclo[2.2.2]octan-1-yl)methyl)bicyclo[1.1.1]pentane-1-carboxamide]: the EC50 worked out at 800 nM.

`CC(C)Oc1ccc(-c2cccc(N(CC34CCC(c5noc(C(C)(C)F)n5)(CC3)CC4)C(=O)OC(C)(C)C(F)(F)F)c2)cc1` [Example 584, 1,1,1-trifluoro-2-methylpropan-2-yl ((4-(5-(2-fluoropropan-2-yl)-1,2,4-oxadiazol-3-yl)bicyclo[2.2.2]octan-1-yl)methyl)(4′-isopropoxy-[1,1′-biphenyl]-3-yl)carbamate] displayed an EC50 of 31 nM.

Turning to `Cc1nc2ncc(-c3cccc(N(CC45CCC(c6nc(C(C)C)no6)(CC4)CC5)C(=O)C45CC(F)(C4)C5)c3)cc2s1` [Example 389, 3-fluoro-N-((4-(3-isopropyl-1,2,4-oxadiazol-5-yl)bicyclo[2.2.2]octan-1-yl)methyl)-N-(3-(2-methylthiazolo[4,5-b]pyridin-6-yl)phenyl)bicyclo[1.1.1]pentane-1-carboxamide], the EC50 is 61 nM.

As for `Cc1cn2cc(-c3cccc(N(CC45CCC(c6nc(C7CC7)no6)(CC4)CC5)C(=O)C45CC(F)(C4)C5)c3)cc(C)c2n1` [Example 322, N-((4-(3-cyclopropyl-1,2,4-oxadiazol-5-yl)bicyclo[2.2.2]octan-1-yl)methyl)-N-(3-(2,8-dimethylimidazo[1,2-a]pyridin-6-yl)phenyl)-3-fluorobicyclo[1.1.1]pentane-1-carboxamide], the EC50 is 270 nM.

Consider `CC(C)(O)c1ccc(-c2cccc(N(CC34CCC(c5noc(C(C)(C)F)n5)(CC3)CC4)C(=O)N[C@H]3CC[C@](C)(O)CC3)c2)cc1` [Example 599, 1-((4-(5-(2-fluoropropan-2-yl)-1,2,4-oxadiazol-3-yl)bicyclo[2.2.2]octan-1-yl)methyl)-3-((trans)-4-hydroxy-4-methylcyclohexyl)-1-(4′-(2-hydroxypropan-2-yl)-[1,1′-biphenyl]-3-yl)urea], for which the midpoint of the response, the EC50, lay at 30 nM.

Consider `O=C(N(CC12CCC(c3nc(C4CC4)no3)(CC1)CC2)c1cccc(-c2nc(C(F)(F)F)ccc2F)c1)C12CC(F)(C1)C2` [Example 293, N-((4-(3-cyclopropyl-1,2,4-oxadiazol-5-yl)bicyclo[2.2.2]octan-1-yl)methyl)-3-fluoro-N-(3-(3-fluoro-6-(trifluoromethyl)pyridin-2-yl)phenyl)bicyclo[1.1.1]pentane-1-carboxamide], for which it took 679 nM to reach a half-maximal effect (EC50).

The compound `CCOc1ccc(-c2cccc(N(CC34CCC(c5nc(C6CC6)no5)(CC3)CC4)C(=O)C34CC(F)(C3)C4)c2)cn1` [Example 281, N-((4-(3-cyclopropyl-1,2,4-oxadiazol-5-yl)bicyclo[2.2.2]octan-1-yl)methyl)-N-(3-(6-ethoxypyridin-3-yl)phenyl)-3-fluorobicyclo[1.1.1]pentane-1-carboxamide] came in with an EC50 of 66 nM.

As for `COc1cc(-c2cccc(N(CC34CCC(c5cccc(C)n5)(CC3)CC4)C(=O)C34CC(F)(C3)C4)c2)ccn1` [Example 239, 3-Fluoro-N-(3-(2-methoxypyridin-4-yl)phenyl)-N-((4-(6-methylpyridin-2-yl)bicyclo[2.2.2]octan-1-yl)methyl)bicyclo[1.1.1]pentane-1-carboxamide], the EC50 was found to be 1320 nM.

Turning to `O=C(N(CC12CCC(c3nc(C4CC4)no3)(CC1)CC2)c1cccc(-c2cc(Br)cn3ncnc23)c1)C12CC(F)(C1)C2` [Example 326, N-(3-(6-bromo-[1,2,4]triazolo[1,5-a]pyridin-8-yl)phenyl)-N-((4-(3-cyclopropyl-1,2,4-oxadiazol-5-yl)bicyclo[2.2.2]octan-1-yl)methyl)-3-fluorobicyclo[1.1.1]pentane-1-carboxamide], the concentration for a half-maximal effect (EC50) was determined as 782 nM.

The values are drawn from patent US11254663B2 (BRISTOL-MYERS SQUIBB COMPANY, priority 2019, dated 2022).
